Source: the NIST ThermoML archive (doi:10.1021/je700398k)

Conditions: Liquid

ClCC1CO1 (stereo unspecified) [1-chloro-2,3-epoxypropane]
Conditions | vapor or sublimation pressure [kPa]
315.67 K | 5.916
316.53 K | 6.183
318.81 K | 6.915
321.9 K | 8.015
324.03 K | 8.859
327.03 K | 10.18
330.21 K | 11.74
334.22 K | 14.01
334.77 K | 14.32
337.79 K | 16.3
339.71 K | 17.66
343.98 K | 21.05
345.99 K | 22.82
347.15 K | 23.9
350.87 K | 27.61
352.3 K | 29.16
354.46 K | 31.66
357.56 K | 35.49
359.92 K | 38.7
363.28 K | 43.68
367.42 K | 50.42
371.36 K | 57.63
375.06 K | 65.2
388.29 K | 98.82

CN1CCCC1=O [N-methylpyrrolidone]
Conditions | vapor or sublimation pressure [kPa]
380.73 K | 4.742
383.12 K | 5.24
386.38 K | 5.98
387.92 K | 6.361
389.88 K | 6.862
393.04 K | 7.775
400.46 K | 10.29
403.85 K | 11.62
406.68 K | 12.87
408.96 K | 13.96
411.42 K | 15.22
413.77 K | 16.5
416.81 K | 18.28
420.94 K | 20.97
424.65 K | 23.65
427.56 K | 25.96
432.29 K | 30.08
435.85 K | 33.54
439.12 K | 36.99
441.74 K | 39.96
444.04 K | 42.73
446.64 K | 46.02
451.08 K | 52.18
457.46 K | 62.11
475.72 K | 99.4

CN1CCCCCC1=O [1-methylazacycloheptan-2-one]
Conditions | vapor or sublimation pressure [kPa]
402.95 K | 4.019
405.13 K | 4.39
411.63 K | 5.651
415.53 K | 6.531
420.7 K | 7.906
424.29 K | 8.986
428.38 K | 10.38
430.35 K | 11.12
434.66 K | 12.84
436.35 K | 13.6
443.09 K | 16.89
450.68 K | 21.39
458.3 K | 26.82
462.79 K | 30.5
468.95 K | 36.27
479.21 K | 47.69
510.6 K | 101.4
